Key:
[1] = tested on: subjects with Smith-Lemli-Opitz Syndrome; assay: Retrospective analysis of rate of change in current state ADI scores before and after cholesterol supplementation; type: in vivo, human; conditions: for Cholesterol effect (regression coefficient) on average change in ADI Nonverbal score per year / Cholesterol effect (regression coefficient) on average change in ADI Repetitive score per year / Cholesterol effect (regression coefficient) on average change in ADI Social score per year / Cholesterol effect (regression coefficient) on average change in ADI Verbal score per year: negative = improvement
Experimental: Cholesterol Supplementation Improved Behavioral Symptoms and May Improve ASD Features in SLOS. The Autism Diagnostic Interview was conducted with 6 SLOS individuals, and data was obtained for 3 “current state” time-points: age 4-5, just before starting cholesterol supplementation, and present while on cholesterol. The change in the score of three ADI algorithm domains—Social, Communication, and Restricted, Repetitive, and Stereotyped Behavior—was estimated. Because the time between visits varied from subject to subject, a model was developed to control for age and time lapse between tests. A detailed description of the model and outcomes is included in Example 1. In summary, on the Social domain, the individuals on cholesterol supplementation improved by an average of 7.07 points more than children not on supplementation (p value 0.008). The ADI Communication domain has a non-verbal score that is completed for all individuals and a verbal score that is completed in those individuals who have phrase speech. The value for the non-verbal score is within the verbal total score. In the non-verbal children, the language domain score improved 2.51, p value 0.04. […] In the Repetitive domain, the children worsened an average of 1.54 points (p value<0.001) (Example 1).
The variables listed in the analysis of the primary outcomes are below. i=1, . . . , 6 children, j=2, 3 visits • socialchij=average change in social measure per year for child i between age at visit j and age at visit j−1. (More specifically, socialchij is social score at visit j minus social score at visit j−1, divided by the number of years between visits j and j−1.) • verbalchij=average change in verbal measure per year for child i between age at visit j and age at visit j−1. • nonverbalchij=average change in nonverbalchij measure per year for child i between age at visit j and age at visit j−1. • repetchij=average change in repetitive measure per year for child i between age at visit j and age at visit j−1.
ageij=age of child i at visit j at which measure was performed
agedifij=number of years between visit j and visit j−1
agecholij=age at which cholesterol supplementation began for child i
cholij=1 if cholesterol supplementation has occurred at prior to visit j for child i.
Note that the large improvements are consistent with large negative values. In other words, if a child has a large improvement in social score between visits j−1 and j, this will be reflected as a large negative value for socialchij.
So, the idea is to model the average change in scores before and after supplementation, adjusting for age, the number of years between visits, and the age at which supplementation occurred. To do this, our linear model for “social” is socialchij=β0i+[…]+β2agedifij+β3agecholij+β4cholij+eij
We use a linear regression model that allows for correlation between observations from the same individual. Using this model, we estimate the […] parameters in the model, which measure the direction and magnitude of the association between social score change and each of the covariates (i.e., age, age difference, age at cholesterol, and cholesterol). The same model was fit for each of the four outcomes. The table below gives the estimated coefficients for each of the 4 primary outcome variables.

individuals with SLOS = conditions: cited from earlier work
[2] = 6 SLOS children, model with age, age difference, age at cholesterol, cholesterol
[3] = model leaving out age at cholesterol
[4] = model leaving out age difference from last visit

For `CC(C)CCC[C@@H](C)[C@H]1CC[C@H]2[C@@H]3CC=C4C[C@@H](O)CC[C@]4(C)[C@H]3CC[C@]12C` [Cholesterol, cholesterol], the “Cholesterol effect (regression coefficient) on average change in ADI Nonverbal score per year” value [1, 2] was −2.51, the “Cholesterol effect (regression coefficient) on average change in ADI Repetitive score per year” value [1, 2] was 1.54 and the “Cholesterol effect (regression coefficient) on average change in ADI Social score per year” value [1, 2] was −7.07. For the same compound, the “Cholesterol effect (regression coefficient) on average change in ADI Verbal score per year” value [1, 2] was −6.97, the “ADI Repetitive domain: average worsening” value ([1]; SLOS children on cholesterol supplementation, p value<0.001) was 1.54 points and the “ADI Social domain: average improvement more than children not on supplementation” value ([1]; SLOS individuals on cholesterol supplementation, p value 0.008) was 7.07 points. The “Association of cholesterol supplementation with social, verbal and non-verbal scores (correlation matrix, FIG. 1)” value ([1]; children who have already begun supplementation, not accounting for age or other factors) was “scores tend to be lower on average”, the “Social and communication abilities with cholesterol supplementation” value ([1]; in SLOS) was “improvement was found” and the “Cholesterol effect (regression coefficient) on average change in ADI Nonverbal score per year” value [1, 3] was −2.56. For the same compound, the “Cholesterol effect (regression coefficient) on average change in ADI Repetitive score per year” value [1, 3] was 1.23, the “Cholesterol effect (regression coefficient) on average change in ADI Social score per year” value [1, 3] was −5.14 and the “Cholesterol effect (regression coefficient) on average change in ADI Verbal score per year” value [1, 3] was −6.77. For the same compound, the “Cholesterol effect (regression coefficient) on average change in ADI Nonverbal score per year” value [1, 4] was −2.05, the “Cholesterol effect (regression coefficient) on average change in ADI Repetitive score per year” value [1, 4] was 1.45 and the “Cholesterol effect (regression coefficient) on average change in ADI Social score per year” value [1, 4] was −6.97. The “Cholesterol effect (regression coefficient) on average change in ADI Verbal score per year” value [1, 4] was −4.14, the “ADI language domain (non-verbal) score improvement” value ([1]; non-verbal SLOS children on cholesterol supplementation, p value 0.04) was 2.51 and the “ADI verbal score average change (given as increase)” value ([1]; verbal SLOS children on cholesterol supplementation, p value<0.001) was 6.97 points. The “Developmental status over time with cholesterol supplementation” value (individuals with SLOS; SLOS, one group) was “did not improve”, the “Growth, speech articulation and neurodevelopmental status with cholesterol supplementation” value (individuals with SLOS; SLOS, some reports) was “improves” and the “Irritability, sleep disturbance and obsessive compulsive behavior with cholesterol supplementation” value (individuals with SLOS; individuals with SLOS) was “improve with cholesterol supplementation”.
